The text below walks through data of ChEMBL document CHEMBL5150047, “Novel bioactive hybrid Celecoxib-HDAC Inhibitor, induces apoptosis in human acute lymphoblastic leukemia cells” (Bioorg Med Chem, 2022).

The source made the active and inactive calls. No cut-off for these calls is given here.

In one data set the test system is K562. Nature of the data set: Antiproliferative activity against human K562 cells assessed as reduction in cell viability incubated for 48 hrs by CCK8 assay. Type of data set: functional, cell-based. The settings on record: K562, 48 h. In general terms: Tetrazolium dyes change colour on reduction, which living cells bring about.
The subject of a further data set is HL-60. The data set can be described thus: Antiproliferative activity against human HL-60 cells assessed as reduction in cell viability incubated for 48 hrs by CCK8 assay. The following applies: HL-60, 48 h. Type of data set: functional, cell-based.
A further data set has as its system Jurkat. Nature of the data set: Antiproliferative activity against human Jurkat cells assessed as reduction in cell viability incubated for 48 hrs by CCK8 assay. Type of data set: functional, cell-based.
Data set [1] concerns NALM-6. Nature of the data set: Antiproliferative activity against human NALM-6 cells assessed as reduction in cell viability incubated for 48 hrs by CCK8 assay. The following applies: NALM-6, 48 h. Type of data set: functional, cell-based.
In another data set the test system is MCF-10A. Nature of the data set: Cytotoxicity against human MCF-10A cells assessed as reduction in cell viability by CCK8 assay. The format is toxicity, cell-based.
Data set [2] has as its system HUVEC. Nature of the data set: Cytotoxicity against human HUVEC cells assessed as reduction in cell viability by CCK8 assay. Type of data set: toxicity, cell-based.
For another data set, the system named is L02. Nature of the data set: Cytotoxicity against human L02 cells assessed as reduction in cell viability by CCK8 assay. Type of data set: toxicity, cell-based.
Data set [3] has as its system HUVEC. Nature of the data set: Cytotoxicity against human HUVEC cells assessed as reduction in cell viability up to 50 uM by CCK8 assay. Type of data set: toxicity, cell-based.
The subject of data set [4] is NALM-6. The data set can be described thus: Downregulation of HDAC2 expression in human NALM-6 cells incubated for 48 hrs by western blot analysis. Type of data set: functional, cell-based. The following applies: dose 10-30 µM, DDE = dose-dependent effect. In general terms: In western blotting, separated proteins are transferred to a membrane and probed.
Data set [5] deals with NALM-6. The data set can be described thus: Induction of apoptosis in human NALM-6 cells assessed as increase in cleaved PARP expression at 10 to 30 uM incubated for 48 hrs by western blot analysis. The format is functional, cell-based. The settings on record: dose 10-30 µM.
Data set [6] relates to NALM-6. Nature of the data set: Induction of apoptosis in human NALM-6 cells assessed as viable cells at 30 uM incubated for 48 hrs by AnnexinV-FITC/PI staining based flow cytometry (reference value: 97.98%). The format is functional. The following applies: read-out: Activity. (In general: In flow cytometry, cells or beads pass a laser one at a time.)
Data set [7] relates to NALM-6. The data set can be described thus: Antiproliferative activity against human NALM-6 cells assessed as reduction in cell viability incubated for 24 hrs by CCK8 assay. The format is functional, cell-based.
Data set [8] relates to NALM-6. The data set can be described thus: Induction of apoptosis in human NALM-6 cells assessed as early apoptotic cells at 30 uM incubated for 48 hrs by AnnexinV-FITC/PI staining based flow cytometry (reference value: 1.09%). Type of data set: functional.
Data set [9] deals with NALM-6. The data set can be described thus: Induction of cell cycle arrest in human NALM-6 cells assessed as reduction in proportion of cells at S phase at 30 uM incubated for 48 hrs by PI/RNase staining based flow cytometry. The format is functional.
Data set [10] deals with NALM-6. The data set can be described thus: Potency index, ratio of celecoxib IC50 to test compound IC50 for antiproliferative activity against human NALM-6 cells assessed as reduction in cell viability incubated for 48 hrs by CCK8 assay. Type of data set: functional.
Data set [11] has as its system NALM-6. Nature of the data set: Induction of apoptosis in human NALM-6 cells assessed as necrotic cells at 10 uM incubated for 48 hrs by AnnexinV-FITC/PI staining based flow cytometry (reference value: 0.01%). Type of data set: functional.
Data set [12] relates to NALM-6. Nature of the data set: Induction of apoptosis in human NALM-6 cells assessed as necrotic cells at 30 uM incubated for 48 hrs by AnnexinV-FITC/PI staining based flow cytometry (reference value: 0.01%). The format is functional.
In another data set the target is Histone deacetylase. Nature of the data set: Inhibition of HDAC in human NALM-6 nuclear extract incubated for 48 hrs by fluorometric analysis. The format is subcellular, Nucleus.
The subject of data set [13] is NALM-6. The data set can be described thus: Induction of apoptosis in human NALM-6 cells assessed as late apoptotic cells at 30 uM incubated for 48 hrs by AnnexinV-FITC/PI staining based flow cytometry (reference value: 0.92%). Type of data set: functional.
Data set [14] relates to NALM-6. Nature of the data set: Induction of apoptosis in human NALM-6 cells assessed as viable cells at 10 uM incubated for 48 hrs by AnnexinV-FITC/PI staining based flow cytometry (reference value: 97.98%). Type of data set: functional. The following applies: read-out: Activity.
Data set [15] deals with NALM-6. Nature of the data set: Induction of apoptosis in human NALM-6 cells assessed as early apoptotic cells at 10 uM incubated for 48 hrs by AnnexinV-FITC/PI staining based flow cytometry (reference value: 1.09%). Type of data set: functional.
For data set [16], the system named is NALM-6. Nature of the data set: Induction of apoptosis in human NALM-6 cells assessed as late apoptotic cells at 10 uM incubated for 48 hrs by AnnexinV-FITC/PI staining based flow cytometry (reference value: 0.92%). The format is functional.
Data set [17] deals with NALM-6. Nature of the data set: Induction of cell cycle arrest in human NALM-6 cells assessed as accumulation of cells at G2 phase at 30 uM incubated for 48 hrs by PI/RNase staining based flow cytometry. Type of data set: functional.

Take `Cc1ccc(-c2cc(C(F)(F)F)nn2-c2ccc(S(=O)(=O)NC(=O)C[Se]C#N)cc2)cc1`: the IC50 (in general, the concentration at which inhibition is half-maximal) in the data set on K562 came out at 44.1 µM; in the data set with HL-60, 30 µM; in the data set with Jurkat, 33.3 µM; in the data set on NALM-6 [1], 34.9 µM.
For `Cc1ccc(-c2cc(C(F)(F)F)nn2-c2ccc(S(=O)(=O)NC(=O)CC[Se]C#N)cc2)cc1` the same measures were > 100 µM, 62.5 µM, > 100 µM and > 100 µM.
In the case of `O=C(CCCCCCC(=O)Nc1ccccc1)NO` [VORINOSTAT], the Activity result in the data set with MCF-10A, in the data set with HUVEC [2] and in the data set with L02 was “Toxic” each time.
Turning to `Cc1ccc(-c2cc(C(F)(F)F)nn2-c2ccc(S(=O)(=O)NC(=O)CCCC[Se]C#N)cc2)cc1`, the IC50 in the data set on K562 was > 100 µM; in the data set on HL-60, 59.8 µM; with Jurkat, > 100 µM; in the data set with NALM-6 [1], > 100 µM.
On to `Cc1ccc(-c2cc(C(F)(F)F)nn2-c2ccc(S(N)(=O)=O)cc2)cc1` [CELECOXIB], for which the IC50 came to 57.8 µM with K562, 44.7 µM in the data set on HL-60, 32.1 µM with Jurkat and 28.6 µM with NALM-6 [1]. In addition, the Activity result in the data set on HUVEC [3] was “Non-Toxic”.
In the case of `Cc1ccc(-c2cc(C(F)(F)F)nn2-c2ccc(S(=O)(=O)NC(=O)CCCCC[Se]C#N)cc2)cc1`, the inhibition result with NALM-6 [4] is “Dde”. The outcome with NALM-6 [5], in the data set on NALM-6 [7], with NALM-6 [9] and with NALM-6 [17] was Active. Besides, the IC50 with K562 was determined as 11.7 µM; in the data set with HL-60, 26.8 µM; in the data set with Jurkat it was 12.6 µM; on Histone deacetylase it was 11.75 µM; with NALM-6 [1], 9.95 µM. Also, the viability at 30 µM with NALM-6 [6] is 85.8%. The Activity entry with MCF-10A is listed as “Non-Toxic”; in the data set with HUVEC [2], “Non-Toxic”; in the data set on NALM-6 [8], 9.51%; with NALM-6 [11], 0.09%; in the data set on NALM-6 [12], 0.49%; in the data set on L02, “Non-Toxic”. For the same compound, the Activity with NALM-6 [13] was 4.17%; with NALM-6 [15], 1.53%; in the data set on NALM-6 [16], 0.72%. In the data set with NALM-6 [10], the “Ratio IC50” value was 2.8. Besides, the viability at 10 µM in the data set with NALM-6 [14] came out at 97.7%.
As to `Cc1ccc(-c2cc(C(F)(F)F)nn2-c2ccc(S(=O)(=O)NC(=O)CCC[Se]C#N)cc2)cc1`, the IC50 in the data set with K562, in the data set with HL-60, in the data set on Jurkat and in the data set on NALM-6 [1] was > 100 µM each time.
